Data reported in ChEMBL document CHEMBL1130317 (J Med Chem, 1997).

How the values were obtained:
[1] = target: T1, Aldo-keto reductase family 1 member A1 (Rattus norvegicus) (UniProt P51635); test: Percent inhibition of rat kidney Aldehyde reductase (ALR) at 1x10E-4 M
T1 sequence (whole entry): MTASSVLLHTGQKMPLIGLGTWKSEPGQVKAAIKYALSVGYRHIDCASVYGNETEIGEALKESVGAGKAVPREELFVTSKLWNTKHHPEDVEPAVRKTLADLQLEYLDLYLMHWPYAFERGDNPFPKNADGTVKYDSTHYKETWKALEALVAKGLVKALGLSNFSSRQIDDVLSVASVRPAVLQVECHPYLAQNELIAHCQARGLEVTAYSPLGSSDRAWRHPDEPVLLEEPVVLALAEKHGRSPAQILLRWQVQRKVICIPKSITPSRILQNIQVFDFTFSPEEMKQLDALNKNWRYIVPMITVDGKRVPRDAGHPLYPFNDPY

[2] = target: T2, Aldo-keto reductase family 1 member A1 (Rattus norvegicus, UniProt P51635); test: In vitro inhibitory activity against rat kidney aldehyde reductase(ALR).
T2 sequence (P51635 whole entry): T1 sequence (whole entry)

[3] = target: Aldo-keto reductase family 1 member B1 (Rattus norvegicus) (UniProt P07943); test: Inhibitory activity against rat lens aldose reductase(AR) at the concentration of 1*10e-7 M
[4] = target: Aldo-keto reductase family 1 member B1 (Rattus norvegicus, UniProt P07943); test: Inhibitory activity against rat lens aldose reductase(AR).
Rattus norvegicus = organism: Rattus norvegicus; test: Ratio of IC50 value of rat kidney ALR to rat lens AR; format: tissue-based; conditions: Lens of camera-type eye

| inhibition [1] [%] | IC50 [2] [µM] | inhibition [3] [%] | IC50 [4] [µM] | Structure (SMILES) | Ratio (Rattus norvegicus) |
| --- | --- | --- | --- | --- | --- |
| 11.8 | > 100 | 27.8 | – | O=C(O)Cn1c(=O)ccn(Cc2cccc([N+](=O)[O-])c2)c1=O | – |
| 26.5 | > 100 | – | 0.025 | O=C(O)Cn1ccc(=O)n(Cc2ccc(Cl)c([N+](=O)[O-])c2)c1=O | > 4000 |
| 12.4 | > 100 | 17.7 | – | C=C1N(CC(=O)O)C(=O)C(=O)N1Cc1cccc([N+](=O)[O-])c1 | – |
| 11 | > 100 | 44 | – | O=C(O)CN1C(=O)N(Cc2cccc([N+](=O)[O-])c2)C(=O)C1O (configuration not stated) | – |
| 17.4 | > 100 | – | 0.034 | O=C(O)Cn1ccc(=O)n(Cc2cccc([N+](=O)[O-])c2)c1=O | > 2940 |
| 32 | > 100 | – | 0.0057 | O=C(O)Cn1ccc(=O)n(Cc2nc3cc(Cl)ccc3s2)c1=O | > 17500 |
| – | 28 | – | 0.025 | O=C(O)CN1C(=O)C(=O)N(Cc2cccc([N+](=O)[O-])c2)C1=S | 1120 |
| 37.3 | – | – | – | O=C(O)CN1C(=O)C(=O)N(Cc2cccc([N+](=O)[O-])c2)C1=O | – |
| 37 | > 100 | – | 0.062 | O=C(O)CN1CC(=O)N(Cc2nc3c(Cl)cccc3s2)C1=O | > 1610 |
| 3.8 | > 100 | 38.2 | – | O=C(O)CN1CC(=O)N(Cc2cccc([N+](=O)[O-])c2)C1=O | – |
| – | 58 | – | 0.015 | O=C(O)CN1C(=O)C(=O)N(Cc2nc3cc(Cl)ccc3s2)C1=O | 3870 |
| – | 72 | – | 0.012 | O=C(O)CN1C(=O)C(=O)N(Cc2nc3c(Cl)cccc3s2)C1=O | 6000 |
| – | > 100 | 4.6 | – | O=C(O)CN1C(=O)CN(Cc2cccc([N+](=O)[O-])c2)C1=O | – |
| 19 | > 100 | 5 | – | O=C(O)CN1C(=O)C(O)N(Cc2cccc([N+](=O)[O-])c2)C1=O (configuration not stated) | – |
| 39.3 | > 100 | – | 0.011 | O=C(O)Cn1ccc(=O)n(Cc2nc3c(Cl)cccc3s2)c1=O | > 9090 |
| 33.5 | > 100 | 1.5 | – | O=C(O)CN1C(=O)CC(=O)N(Cc2cccc([N+](=O)[O-])c2)C1=O | – |
| 39.5 | > 100 | – | 0.016 | O=C(O)CN1C(=O)C(=O)N(Cc2ccc(Cl)c([N+](=O)[O-])c2)C1=O | > 6250 |
| – | – | 47.5 | – | O=C(O)CN1CC(=O)N(Cc2nc3cc(Cl)ccc3s2)C1=O | – |
| – | 58 | – | 0.032 | C=C1C(=O)N(CC(=O)O)C(=O)N1Cc1cccc([N+](=O)[O-])c1 | 1810 |
| 1.6 | > 100 | – | 0.024 | O=C(O)CN1CC(=O)N(Cc2ccc(Cl)c([N+](=O)[O-])c2)C1=O | > 4170 |
